Consider three molecules from paper PMC3328499 (PLoS ONE, 2012).

In one assay the target is T1, MalE-MalFGK2 complex (Escherichia coli, UniProt P02916+P0AEX9+P68183+P68187, T177W/T57C).
T1 construct: made in house; host or cells: E. coli BL21
The assay is described as follows: Maltose affinity of transporter-bound MalE (fluorescence quenching, competitive fit and equilibrium titration). The assay is classed as binding, E. coli. Particulars: sugar 1 mM added to preformed complex, AMP-PNP.

The target of assay [1] is T2, Nd-MalFGK2 (Escherichia coli, UniProt P02916+P68183+P68187).
T2 construct: made in house; host or cells: E. coli BL21
T2 sequence (P68187 whole entry): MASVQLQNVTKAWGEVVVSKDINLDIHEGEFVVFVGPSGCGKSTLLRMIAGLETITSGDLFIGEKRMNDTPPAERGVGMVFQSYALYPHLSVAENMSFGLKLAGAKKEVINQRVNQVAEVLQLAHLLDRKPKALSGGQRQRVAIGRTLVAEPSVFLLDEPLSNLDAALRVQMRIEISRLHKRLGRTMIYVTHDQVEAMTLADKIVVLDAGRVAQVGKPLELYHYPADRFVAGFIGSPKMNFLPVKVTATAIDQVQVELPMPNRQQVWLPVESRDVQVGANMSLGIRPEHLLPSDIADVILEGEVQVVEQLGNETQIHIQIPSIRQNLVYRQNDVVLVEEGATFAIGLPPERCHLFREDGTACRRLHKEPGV
T2 sequence (P68183 whole entry): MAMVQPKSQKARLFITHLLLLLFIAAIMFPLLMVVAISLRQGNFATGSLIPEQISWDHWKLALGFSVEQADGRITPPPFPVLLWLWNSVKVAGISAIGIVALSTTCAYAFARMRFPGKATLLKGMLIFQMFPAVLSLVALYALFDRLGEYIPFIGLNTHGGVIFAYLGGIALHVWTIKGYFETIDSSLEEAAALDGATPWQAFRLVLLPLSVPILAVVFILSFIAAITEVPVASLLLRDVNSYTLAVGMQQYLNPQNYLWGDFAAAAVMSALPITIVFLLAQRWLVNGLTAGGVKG
T2 sequence (P02916 whole entry): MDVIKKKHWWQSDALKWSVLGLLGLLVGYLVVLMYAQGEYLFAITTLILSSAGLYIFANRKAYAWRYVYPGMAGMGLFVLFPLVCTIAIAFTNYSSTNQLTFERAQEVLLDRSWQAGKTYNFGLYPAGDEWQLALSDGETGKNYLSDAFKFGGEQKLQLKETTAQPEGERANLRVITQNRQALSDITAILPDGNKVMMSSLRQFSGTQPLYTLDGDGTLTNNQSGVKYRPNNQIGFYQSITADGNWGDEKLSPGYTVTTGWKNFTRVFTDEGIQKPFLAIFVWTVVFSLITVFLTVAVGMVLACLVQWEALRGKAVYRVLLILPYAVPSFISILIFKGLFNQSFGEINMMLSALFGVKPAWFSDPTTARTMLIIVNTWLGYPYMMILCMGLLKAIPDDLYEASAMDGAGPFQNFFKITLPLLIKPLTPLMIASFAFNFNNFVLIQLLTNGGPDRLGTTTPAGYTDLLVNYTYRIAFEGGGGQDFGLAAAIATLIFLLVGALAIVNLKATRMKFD
The assay is described as follows: ATPase activity of MalFGK2 in nanodiscs. Format: biochemical, E. coli. As to the method:
Figure 1 ATPase activity of the MalFGK2 complex in nanodiscs. (A) The MalFGK2 complex in nanodisc (lane 1) and detergent solution (lane 2) was analyzed by BN-PAGE and CN-PAGE followed by Coomassie blue staining of the gel. Molecular weight markers: BSA (67/134 kDa); catalase (232 kDa); ferritin (440 kDa). On CN-PAGE, the MalFGK2 complex precipitates as a protein smear at the top of the gel. […] The reported values were derived from 3 independent experiments.
(§1) Samples were analyzed by CN-PAGE and autoradiography. […] After incubation (10 min, 37°C), samples were analyzed by CN-PAGE and autoradiography. […] The reported values were derived from 3 independent experiments.
(§2) The MalFGK2 ATPase activity was determined by monitoring the release of inorganic phosphate using photo-colorimetric method. Linear gradient blue-native (BN) and colorless-native (CN) gel electrophoresis was performed as described. Sucrose gradient analysis was performed as described. MalE was iodinated using the Iodogen reagent (Pierce-Thermo Scientific). The specific activity of [^125I]-MalE was ∼2×10^5 c.p.m./μg.

Assay [2] has as its target T2, Nd-MalFGK2. The assay can be described thus: Native-PAGE (CN-PAGE) binding of [125I]-MalE to Nd-MalFGK2. Also noted: species or system E. coli. The note with it: maltose 1 mM, AMP-PNP or ATP plus vanadate. On the procedure:
After incubation (10 min, 37°C), samples were analyzed by CN-PAGE followed by Coomassie blue staining (bottom part) and autoradiography (upper part). […] After incubation (10 min, 37°C), samples were analyzed by CN-PAGE followed by Coomassie blue staining (bottom part) then autoradiography (upper part). […] After incubation (10 min, 37°C), samples were analyzed by CN-PAGE and autoradiography. […] The position MalE-31 and MalF-177 are indicated in red. […] When the data were fitted to one-site binding equation, the dissociation constant in the presence of AMP-PNP was ∼79 nM.
as §1, §2

The test system of another assay is HisQM. On the set-up: method as in PMID 8662800. Particulars: cited from earlier work.
For assay [3] the following is noted: read-out: Kd of BtuF for its ligand; cited from earlier work.
The next assay relates to BtuCD. The note with it: cited from earlier work.

T1 sequence (P68187 whole entry): as the sequence (P68187 whole entry) above
T1 sequence (P68183 whole entry): as the sequence (P68183 whole entry) above
T1 sequence (P02916 whole entry T177W): as the sequence (P02916 whole entry) above, with T177W counted along it

With `OC[C@H]1O[C@H](O[C@H]2[C@H](O)[C@@H](O)C(O)O[C@@H]2CO)[C@H](O)[C@@H](O)[C@@H]1O` (mixture of isomers) [maltose], on MalE-MalFGK2 complex, the “dissociation of MalE from the transporter in nanodiscs” value is recorded as “rapid loss of fluorescence quenching”. For the same molecule, on Nd-MalFGK2 [1] (in disc and in detergent, maltose 1 mM, MalE 2 µM), the “effect of maltose on MalE-stimulated ATPase activity” value is given as “significant inhibition of the ATPase activity”. Besides, at Nd-MalFGK2 [1] (no MalE), the “effect of maltose alone on basal ATPase activity” value was “did not effect the basal ATPase activity”. Moreover, the “effect of maltose on binding of MalE to MalFGK2 on native-PAGE” value on Nd-MalFGK2 [2] is on record as “significantly reduced”.

B1: HisJ: binding protein of histidine transport, binds HisQM (protein, UniProt P0AEU0 23-260, looked up)
Histidine-binding periplasmic …: AIPQNIRIGTDPTYAPFESKNSQGELVGFDIDLAKELCKRINTQCTFVENPLDALIPSLKAKKIDAIMSSLSITEKRQQEIAFTDKLYAADSRLVVAKNSDIQPTVESLKGKRVGVLQGTTQETFGNEHWAPKGIEIVSYQGQDNIYSDLTAGRIDAAFQDEVAASEGFLKQPVGKDYKFGGPSVKDEKLFGVGTGMGLRKEDNELREALNKAFAEMRADGTYEKLAKKYFDFDVYGG
As for B1, in the assay on HisQM, the “reduction of binding of HisJ to HisQM by saturating histidine” value was 3 fold.

B2: BtuF: substrate binding protein of the vitamin B12 transporter (protein, UniProt P37028 23-266, looked up)
Vitamin B12-binding protein: APRVITLSPANTELAFAAGITPVGVSSYSDYPPQAQKIEQVSTWQGMNLERIVALKPDLVIAWRGGNAERQVDQLASLGIKVMWVDATSIEQIANALRQLAPWSPQPDKAEQAAQSLLDQYAQLKAQYADKPKKRVFLQFGINPPFTSGKESIQNQVLEVCGGENIFKDSRVPWPQVSREQVLARSPQAIVITGGPDQIPKIKQYWGEQLKIPVIPLTSDWFERASPRIILAAQQLCNALSQVD
By Kd is commonly meant the concentration at which binding is half-saturated. As for B2, the Kd in assay [3] is ~15 nM. Moreover, the “reduction of the BtuF-BtuCD interaction by saturating vitamin B12” value in the assay on BtuCD is recorded as ~10^5 fold.
